ChEMBL document CHEMBL1141157, “A combination of docking, QM/MM methods, and MD simulation for binding affinity estimation of metalloprotein ligands” (J Med Chem, 2005)

Key:
[1] = molecular target: T1, Matrix metalloproteinase-9 (Homo sapiens, UniProt P14780); test: Inhibition of MOCAc-Pro-Leu-Gly-Leu-A2p (Dnp)-Ala-Arg-NH2 binding to human matrix metalloprotease-9 (MMP-9); conditions: read-out: Log 1/Ki (converted)
[2] = molecular target: T1, Matrix metalloproteinase-9; test: Inhibition constant for human matrix metalloprotease-9 (MMP-9)

T1 sequence (P14780 whole entry): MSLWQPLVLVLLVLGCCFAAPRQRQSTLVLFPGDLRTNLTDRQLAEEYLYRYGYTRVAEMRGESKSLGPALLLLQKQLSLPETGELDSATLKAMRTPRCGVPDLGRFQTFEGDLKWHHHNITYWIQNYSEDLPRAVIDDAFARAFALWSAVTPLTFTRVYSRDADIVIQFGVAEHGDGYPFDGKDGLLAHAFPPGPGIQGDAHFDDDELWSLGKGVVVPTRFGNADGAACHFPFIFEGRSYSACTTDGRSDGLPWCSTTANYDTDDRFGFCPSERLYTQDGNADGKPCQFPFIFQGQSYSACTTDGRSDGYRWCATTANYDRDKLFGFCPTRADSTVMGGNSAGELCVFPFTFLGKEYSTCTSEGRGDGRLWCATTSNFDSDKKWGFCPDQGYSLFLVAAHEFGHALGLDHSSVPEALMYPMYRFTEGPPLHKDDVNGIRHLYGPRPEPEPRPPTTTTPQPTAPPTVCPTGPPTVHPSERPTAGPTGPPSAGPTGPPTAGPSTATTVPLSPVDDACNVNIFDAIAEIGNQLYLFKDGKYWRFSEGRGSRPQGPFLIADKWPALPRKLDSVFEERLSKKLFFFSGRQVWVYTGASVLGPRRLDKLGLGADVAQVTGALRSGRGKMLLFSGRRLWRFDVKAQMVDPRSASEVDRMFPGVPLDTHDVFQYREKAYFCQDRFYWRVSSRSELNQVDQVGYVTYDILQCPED

SMILES	Ki [1] [nM]	Ki [2] [nM]
CCOP(=O)(c1cccc(F)c1)N1Cc2ccccc2C[C@@H]1C(=O)NO (stereo partly drawn)	80.2	–
CCOP(=O)(c1ccc(OC)cc1)N1CC2Nc3ccccc3C2C[C@@H]1C(=O)NO (stereo partly drawn)	1.13	–
CCOP(=O)(c1ccc(OC)cc1)N1CCN(C(=O)OCc2ccccc2)C[C@@H]1C(=O)NO (stereo partly drawn)	5.2	–
CCOP(=O)(c1ccc(F)cc1)N1Cc2ccccc2C[C@@H]1C(=O)NO (stereo partly drawn)	51.9	51.9
COc1ccc(P(=O)(OC2CCCCC2)N2Cc3ccccc3C[C@@H]2C(=O)NO)cc1 (stereo partly drawn)	6.58	–
COc1ccc(P(=O)(OC)N2Cc3ccccc3C[C@@H]2C(=O)NO)cc1 (stereo partly drawn)	2.03	–
CCOP(=O)(c1ccc(OC)cc1)N1Cc2ccccc2C[C@@H]1C(=O)NO (stereo partly drawn)	5.05	5.05
CCOP(=O)(c1ccccc1)N1Cc2ccccc2C[C@@H]1C(=O)NO (stereo partly drawn)	42.7	42.7
CCOP(=O)(c1ccncc1)N1Cc2ccccc2C[C@@H]1C(=O)NO (stereo partly drawn)	278	–
CCOP(=O)(c1ccc(N)cc1)N1Cc2ccccc2C[C@@H]1C(=O)NO (stereo partly drawn)	95.5	–
CCOP(=O)(c1ccc(C)cc1)N1Cc2ccccc2C[C@@H]1C(=O)NO (stereo partly drawn)	41.8	41.8
CCOCCOc1ccc(P(=O)(OCC)N2Cc3ccccc3C[C@@H]2C(=O)NO)cc1 (stereo partly drawn)	14.2	–
CCOCCOP(=O)(c1ccc(OC)cc1)N1Cc2ccccc2C[C@@H]1C(=O)NO (stereo partly drawn)	6.35	–
COc1ccc(P(=O)(OCCc2ccc(-c3ccccc3)cc2)N2Cc3ccccc3C[C@@H]2C(=O)NO)cc1 (stereo partly drawn)	6.47	–
CCOP(=O)(c1cccs1)N1Cc2ccccc2C[C@@H]1C(=O)NO (stereo partly drawn)	59.2	–
CCOP(=O)(c1ccc(-c2ccccc2)cc1)N1Cc2ccccc2C[C@@H]1C(=O)NO (stereo partly drawn)	0.31	–
CCN(CC)CCOP(=O)(c1ccc(OC)cc1)N1Cc2ccccc2C[C@@H]1C(=O)NO (stereo partly drawn)	16.7	–
CCOP(=O)(c1ccc(Oc2ccc(N)cc2)cc1)N1Cc2ccccc2C[C@@H]1C(=O)NO (stereo partly drawn)	0.1	–
COc1ccc(P(=O)(OCCc2ccccn2)N2Cc3ccccc3C[C@@H]2C(=O)NO)cc1 (stereo partly drawn)	3.42	–
CCOP(=O)(c1ccc(OC)cc1)N1Cc2ccccc2C[C@H]1C(=O)NO (stereo partly drawn)	349	349
CCOP(=O)(c1ccccc1F)N1Cc2ccccc2C[C@@H]1C(=O)NO (stereo partly drawn)	32.1	–
CCOP(=O)(c1ccc(OC)cc1)N1CCC[C@@H]1C(=O)NO (stereo partly drawn)	316	–
COc1ccc(P(=O)(OCC2CCCCC2)N2Cc3ccccc3C[C@@H]2C(=O)NO)cc1 (stereo partly drawn)	4.56	–
CCOP(=O)(c1ccc(OC)cc1)N1Cc2cc(N)ccc2C[C@@H]1C(=O)NO (stereo partly drawn)	11	–
CCOP(=O)(c1ccc(Oc2ccccc2)cc1)N1Cc2ccccc2C[C@@H]1C(=O)NO (stereo partly drawn)	0.0794	–
CCOP(=O)(c1ccc(OC)cc1)N1Cc2ccsc2C[C@@H]1C(=O)NO (stereo partly drawn)	3.8	–
CCOP(=O)(CCc1ccccc1)N1Cc2ccccc2C[C@@H]1C(=O)NO (stereo partly drawn)	38.3	–
CCOP(=O)(c1ccc(Oc2ccncc2)cc1)N1Cc2ccccc2C[C@@H]1C(=O)NO (stereo partly drawn)	0.6	–
